{
  "source": "patent US20070191324A1",
  "about": "“Methods for treatment or prophylaxis of aldosterone-mediated pathogenic effects in a subject using an epoxy-steroidal aldosterone antagonist” (priority 1999, published 2007)",
  "key": {"[1]": {"tested_on": "hypertensive patients", "assay": "Eplerenone vs. amlodipine, ambulatory blood pressure monitoring, 16 weeks (Example D-12)", "format": "in vivo, human", "description": "This was a multicenter, randomized, double-blind, active-controlled, placebo run-in, parallel group study. […] If symptomatic hypotension occurred at Week 2 or Weeks 4, 6, 8, or 12 and the patient was on the lowest dose level (Dose Level 1), the patient was to be withdrawn. Study assessments at protocol-specified timepoints included BP, heart rate, ABPM, Holter recording, clinical laboratory analyses including serum potassium levels, concomitant medications. Throughout the study, safety was assessed by routine clinical laboratory analyses, vital signs, physical examinations, 12-lead ECG, and monitoring of adverse events."}, "[2]": {"tested_on": "patients with stage I-III hypertension", "assay": "Fixed-dose eplerenone vs placebo, clinic and ambulatory BP, 12 weeks (Example D-13)", "format": "in vivo, human", "description": "Patients were reassessed using clinic and ambulatory BP at the end of 12 weeks of therapy."}, "[3]": {"tested_on": "patients with mild-to-moderate hypertension", "assay": "Long-term open-label safety and efficacy study of eplerenone (Example D-11)", "format": "in vivo, human", "set-up": "mean change from baseline SBP: unit not given beside the values", "conditions": "for Change Mean seated DBP, Baseline to End of Treatment / Change Mean seated SBP, Baseline to End of Treatment: Responders, ITT", "method": "This 6- to 16-month, open-label, single-group, titration-to-effect study assessed the safety, tolerability, and efficacy of EPL in patients with mild-to-moderate hypertension.\nPatients (n=586) with DBP ≧90 mmHg and <110 mmHg, or SBP ≧140 mmHg and <180 mmHg, received EPL 50 mg QD. If BP was uncontrolled at Weeks 2 or 4 (DBP ≧90 mmHg or SBP ≧140 mmHg), EPL was up-titrated to 100 mg QD and, if necessary, 200 mg QD. If BP remained uncontrolled at any time from Week 6 to the end of Month 3, a second antihypertensive medication of the investigator's choice was added. Safety, tolerability, and BP were assessed at protocol-specified times."}, "[4]": {"tested_on": "captopril-treated saline-drinking SHRSP", "assay": "Angiotensin II-induced renal damage in captopril-treated saline-drinking SHRSP, Protocol 2 (Example A-8)", "format": "in vivo, rat (SHRSP/A3N)", "method": "Animals. Studies were conducted in accordance with institutional guidelines using male SHRSP/A3N (generations F-75 to F-78), n=37, from our local colony. These animals were bred from NIH stock, derived from the SHRSP/A3N substrain described originally by Okamoto and coworkers (Okamoto K et al. Circ. Res. 34 and 35 (suppl I):I-143-I-153.). All animals were housed in a room maintained on a 12:12-h light:dark-cycle and an ambient temperature of 22±1° C. in the Animal Care Facility at New York Medical College. Rats were weaned at 4 weeks of age and allowed free access to Purina Lab Chow 5001 (Ralston Purina, St. Louis, Mo.) and tap water until the initiation of experimental protocols.\nSHRSP were placed on Stroke-Prone Rodent Diet (#39-288, Zeigler Bros Inc., Gardners, Pa.) and 1% NaCl drinking solution ad libitum starting at 8.3 weeks of age. […] Animals were handled and weighed daily. Urine samples were collected for the assessment of proteinuria. Systolic blood pressure and heart rate were measured each week. After 2 weeks of treatment, animals were decapitated, trunk blood was collected into chilled EDTA tubes, and the kidneys were removed, blotted dry, and immediately weighed. Coronal sections of kidney were fixed and later processed for light microscopic evaluation.\nAssays and Analyses. Systolic blood pressure and heart rate of awake animals were measured by tail-cuff plethysmography using a Natsume KN-210 manometer and tachometer (Peninsula Laboratories Inc., Belmont, Calif.). Rats were warmed at 37° C. for 10 min and allowed to rest quietly in a Lucite chamber before measurement of blood pressure. Measurements of urine volume were made gravimetrically. Urinary protein concentration was determined by the sulfosalicylic acid turbidity method. Plasma aldosterone was measured by radioimmunoassay using ^125I-aldosterone as a tracer (Coat-a Count Aldosterone, Diagnostic Products Co., Los Angeles, Calif.).\nHistology. Kidneys were preserved in 10% phosphate-buffered formalin. Coronal sections (2-3 μm) were stained with hematoxylin and eosin and examined by light microscopy in a blinded fashion as previously described (Stier C T et al. J Pharmacol Exp Ther (1992) 260:1410-1415). Glomerular damage was categorized as ischemic or thrombotic. Ischemic lesions were defined as retraction of glomerular capillary tufts with or without appreciable mesangiolysis. Glomerular thrombotic lesions were defined as any one of a combination of the following: segmental to global fibrinoid necrosis, focal thrombosis of glomerular capillaries, swelling and proliferation of intracapillary (endothelial and mesangial) and/or extracapillary cells (crescents), and expansion of reticulated mesangial matrix with or without significant hypercellularity. […] Vascular thrombotic lesions were defined as any one or a combination of the following: mural fibrinoid necrosis, extravasation and fragmentation of red blood cells, and luminal and/or mural thrombosis. Proliferative arteriopathy was characterized by proliferation of markedly swollen myointimal cells with swollen round to ovoid vesicular nuclei surrounded by mucinous extracellular matrix (“onion skinning”) often resulting in nodular thickening. Vascular damage was expressed as the number of arteries and arterioles with lesions per 100 glomeruli. The presence of casts and tubular (ischemic) retraction and simplification was assessed semiquantitatively.\nStatistical Analysis. Significant effects with respect to treatment and time were determined by two-way analysis of variance. Data with only one grouping variable were analyzed statistically by Student's unpaired t tests. When more than two groups were compared, one-way analysis of variance was performed followed by the post-hoc Newman-Keul's multiple comparison test. Data were analyzed using version 2.01 of the GraphPad Prism statistical software package (GraphPad Software Inc., San Diego, Calif.). P<0.05 was considered statistically significant."}, "[5]": {"conditions": "EPL 200 mg plus add-on therapy (N=172)"}, "[6]": {"conditions": "subgroup 50, 100, 200 mg QD + Ahyp (add-on therapy)"}, "[7]": {"conditions": "final dose level EPL 50 mg (N=68)"}, "[8]": {"conditions": "final dose level EPL 100 mg (N=89)"}, "[9]": {"conditions": "final dose level EPL 200 mg (N=104)"}, "[10]": {"conditions": "captopril 50 mg/kg/d, angiotensin II 25 ng/min, eplerenone 100 mg/kg/d, 2 weeks"}},
  "data": [
    {"smiles": "COC(=O)[C@@H]1CC2=CC(=O)CC[C@]2(C)[C@@]23O[C@@H]2C[C@@]2(C)[C@@H](CC[C@@]24CCC(=O)O4)[C@H]13", "note": "[Eplerenone, Pregn-4-ene-7,21-dicarboxylic acid, 9,11-epoxy-17-hydroxy-3-oxo-, γ-lactone, methyl ester, (7α, 11α, 17β)-]", "values": [
      {"measurement": "anti-hypertensive effect, mean 24 hour systolic ABPM", "setting": "[1]; eplerenone 50-200 mg, amlodipine 2.5-10 mg, 16 weeks", "value": "comparable"},
      {"measurement": "safety and tolerability", "setting": "[1]; in vivo", "value": "safe and well tolerated"},
      {"measurement": "Δ Ambulatory BP, diastolic", "setting": "[2]; 25 mg QD", "value": "−4.4", "unit": "mmHg"},
      {"measurement": "Δ Ambulatory BP, systolic", "setting": "[2]; 25 mg QD", "value": "−6.4", "unit": "mmHg"},
      {"measurement": "Δ Clinic BP, diastolic", "setting": "[2]; 25 mg QD", "value": "−3.7", "unit": "mmHg"},
      {"measurement": "Δ Clinic BP, systolic", "setting": "[2]; 25 mg QD", "value": "−5.7", "unit": "mmHg"},
      {"measurement": "Δ Ambulatory BP, diastolic", "setting": "[2]; 50 mg QD", "value": "−4.1", "unit": "mmHg"},
      {"measurement": "Δ Ambulatory BP, systolic", "setting": "[2]; 50 mg QD", "value": "−6.8", "unit": "mmHg"},
      {"measurement": "Δ Clinic BP, diastolic", "setting": "[2]; 50 mg QD", "value": "−4.6", "unit": "mmHg"},
      {"measurement": "Δ Clinic BP, systolic", "setting": "[2]; 50 mg QD", "value": "−6.7", "unit": "mmHg"},
      {"measurement": "Δ Ambulatory BP, diastolic", "setting": "[2]; 100 mg QD", "value": "−5.5", "unit": "mmHg"},
      {"measurement": "Δ Ambulatory BP, systolic", "setting": "[2]; 100 mg QD", "value": "−9.1", "unit": "mmHg"},
      {"measurement": "Δ Clinic BP, diastolic", "setting": "[2]; 100 mg QD", "value": "−6.3", "unit": "mmHg"},
      {"measurement": "Δ Clinic BP, systolic", "setting": "[2]; 100 mg QD", "value": "−10.4", "unit": "mmHg"},
      {"measurement": "Δ Ambulatory BP, diastolic", "setting": "[2]; 200 mg QD", "value": "−5.7", "unit": "mmHg"},
      {"measurement": "Δ Ambulatory BP, systolic", "setting": "[2]; 200 mg QD", "value": "−10.3", "unit": "mmHg"},
      {"measurement": "Δ Clinic BP, diastolic", "setting": "[2]; 200 mg QD", "value": "−5.4", "unit": "mmHg"},
      {"measurement": "Δ Clinic BP, systolic", "setting": "[2]; 200 mg QD", "value": "−8.8", "unit": "mmHg"},
      {"measurement": "gynecomastia, menstrual abnormalities, breast pain", "setting": "[2]; 25-200 mg QD", "value": "no reports of gynecomastia, menstrual abnormalities, or breast pain"},
      {"measurement": "patients responding to eplerenone monotherapy", "setting": "[3]; 261/582", "value": 44.8, "unit": "%"},
      {"measurement": "mean change from baseline DBP", "setting": "[3]; [5]", "value": "−14.6"},
      {"measurement": "mean change from baseline SBP", "setting": "[3]; [5]", "value": "−24.9"},
      {"measurement": "Change Mean seated DBP, Baseline to End of Treatment", "setting": "[3]; subgroup 50 mg QD", "value": "−10.6", "unit": "mmHg"},
      {"measurement": "Change Mean seated SBP, Baseline to End of Treatment", "setting": "[3]; subgroup 50 mg QD", "value": "−15.9", "unit": "mmHg"},
      {"measurement": "Change Mean seated DBP, Baseline to End of Treatment", "setting": "[3]; subgroup 50, 100 mg QD", "value": "−12.2", "unit": "mmHg"},
      {"measurement": "Change Mean seated SBP, Baseline to End of Treatment", "setting": "[3]; subgroup 50, 100 mg QD", "value": "−18.1", "unit": "mmHg"},
      {"measurement": "Change Mean seated DBP, Baseline to End of Treatment", "setting": "[3]; subgroup 50, 100, 200 mg QD", "value": "−12.5", "unit": "mmHg"},
      {"measurement": "Change Mean seated SBP, Baseline to End of Treatment", "setting": "[3]; subgroup 50, 100, 200 mg QD", "value": "−19.1", "unit": "mmHg"},
      {"measurement": "Change Mean seated DBP, Baseline to End of Treatment", "setting": "[3]; [6]", "value": "−14.6", "unit": "mmHg"},
      {"measurement": "Change Mean seated SBP, Baseline to End of Treatment", "setting": "[3]; [6]", "value": "−24.9", "unit": "mmHg"},
      {"measurement": "gynecomastia", "setting": "[3]; doses of 50, 100, and 200 mg", "value": 0.7, "unit": "%"},
      {"measurement": "mean change from baseline DBP", "setting": "[3]; [7]", "value": "−10.6"},
      {"measurement": "mean change from baseline SBP", "setting": "[3]; [7]", "value": "−15.9"},
      {"measurement": "mean change from baseline DBP", "setting": "[3]; [8]", "value": "−12.2"},
      {"measurement": "mean change from baseline SBP", "setting": "[3]; [8]", "value": "−18.1"},
      {"measurement": "mean change from baseline DBP", "setting": "[3]; [9]", "value": "−12.5"},
      {"measurement": "mean change from baseline SBP", "setting": "[3]; [9]", "value": "−19.1"},
      {"measurement": "patients with treatment-emergent AEs of probable relationship to study medication", "setting": "[3]; in vivo", "value": 8.4, "unit": "%"},
      {"measurement": "patients with treatment-emergent AEs of uncertain relationship to study medication", "setting": "[3]; in vivo", "value": 21.5, "unit": "%"},
      {"measurement": "responders at the end of treatment, number", "setting": "[3]; of 582 patients", "value": 433, "unit": "patients"},
      {"measurement": "responders (seDBP<90 mmHg or ≧10 mmHg decrease from Baseline) at the end of treatment", "setting": "[3]; of 582 patients, EPL 50-200 mg QD with or without add-on", "value": 74.3, "unit": "%"},
      {"measurement": "patients with elevated K+ levels", "setting": "[3]; primarily those receiving EPL 200 mg", "value": 2.4, "unit": "%"},
      {"measurement": "safety and tolerability", "setting": "[3]; up to 14 months, 50-200 mg daily alone or 200 mg/day with another antihypertensive agent", "value": "safe and well tolerated"},
      {"measurement": "Glomerular damage, Thrombotic", "setting": "[4]; [10]", "value": "1.0 ± 0.3", "unit": "lesions/100 glomeruli"},
      {"measurement": "plasma aldosterone concentration", "setting": "[4]; [10]", "value": "231 ± 37", "unit": "pg/mL"},
      {"measurement": "renal damage", "setting": "[4]; captopril + angiotensin II 25 ng/min, with eplerenone 100 mg/kg/d or vehicle", "value": "3±1", "unit": "%"}
    ]}
  ]
}
